Assay results from patent US20120077737A1, “HEPATITIS C INHIBITOR COMPOUNDS” (priority 2009, published 2012).
Where two headings read alike, the source gives them in different places.

Key:
[1] = tested on: HCV genotype 1a subgenomic replicon with NS3 resistance mutation R155K; assay: HCV replicon RNA replication assay, R155K 1a; format: cell-based, HCV genotype 1a (strain H77), Huh-7 cells; conditions: Hepatitis C virus, read-out: R155K 1a Ec50 (nM)
[2] = tested on: HCV genotype 1b subgenomic replicon with NS3 resistance mutation D168V; assay: HCV replicon RNA replication assay, D168V 1b; format: cell-based, HCV genotype 1b (Con-1), Huh-7 cells; conditions: Hepatitis C virus, read-out: D168V 1b Ec50 (nM)
[3] = tested on: HCV genotype 1a subgenomic replicon with NS3 resistance mutation D168V; assay: HCV replicon RNA replication assay, D168V 1a; format: cell-based, HCV genotype 1a (strain H77), Huh-7 cells; conditions: Hepatitis C virus, read-out: D168V 1a Ec50 (nM)
[4] = tested on: HCVPV1b subgenomic replicon (wild type 1b); assay: HCV replicon RNA replication assay, wild type 1b; format: cell-based, HCV genotype 1b (Con-1), Huh-7 cells; conditions: Hepatitis C virus, read-out: WT 1b Ec50
[5] = tested on: HCVPV1a subgenomic replicon (wild type 1a); assay: HCV replicon RNA replication assay, wild type 1a; format: cell-based, HCV genotype 1a (strain H77), Huh-7 cells; conditions: Hepatitis C virus, read-out: WT 1a Ec50
[6] = Table 1, luciferase replicon, Huh-7, 72 h
[7] = Table 2, clinical comparators, wildtype genotype 1b
[8] = Table 2, clinical comparators, wildtype genotype 1a

Structure (SMILES) | EC50 ([1]; Huh-7, 72 h) [nM] | EC50 ([2]; Huh-7, 72 h) [nM] | EC50 ([3]; Huh-7, 72 h) [nM] | EC50 [4, 6] [nM] | EC50 [5, 6] [nM] | EC50 [1] [nM] | EC50 [2] [nM] | EC50 [3] [nM] | EC50 [4, 7] [nM] | EC50 [5, 8] [nM]
COc1c(F)ccc2c(O[C@@H]3C[C@H]4C(=O)N[C@]5(C(=O)NS(=O)(=O)C6(C)CC6)C[C@H]5/C=C\CCCCC[C@H](NC(=O)c5ccn(CC(F)F)n5)C(=O)N4C3)cc(OC(C)C)nc12 [Compound 1022, (2R,6S,12Z,13aS,14aR,16aS)-6-({[1-(2,2-difluoroethyl)-1H-pyrazol-3-yl]carbonyl}amino)-2-{[7-fluoro-8-methoxy-2-(propan-2-yloxy)quinolin-4-yl]oxy}-N-[(1-methylcyclopropyl)sulfonyl]-5,16-dioxo-1,2,3,6,7,8,9,10,11,13a,14,15,16,16a-tetradecahydrocyclopropa[e]pyrrolo[1,2-a][1,4]diazacyclopentadecine-14a(5H)-carboxamide] | 1.3 | 0.62 | 0.97 | 0.41 | 0.42 | – | – | – | – | –
COc1c(F)ccc2c(O[C@@H]3C[C@H]4C(=O)N[C@]5(C(=O)NS(=O)(=O)C6(C)CC6)C[C@H]5/C=C\CCCCC[C@H](NC(=O)c5ccn(C(C)C)n5)C(=O)N4C3)cc(OC(C)C)nc12 [Compound 1023, (2R,6S,12Z,13aS,14aR,16aS)-2-{[7-fluoro-8-methoxy-2-(propan-2-yloxy)quinolin-4-yl]oxy}-N-[(1-methylcyclopropyl)sulfonyl]-5,16-dioxo-6-({[1-(propan-2-yl)-1H-pyrazol-3-yl]carbonyl}amino)-1,2,3,6,7,8,9,10,11,13a,14,15,16,16a-tetradecahydrocyclopropa[e]pyrrolo[1,2-a][1,4]diazacyclopentadecine-14a(5H)-carboxamide] | 3.1 | 0.52 | 0.83 | 0.4 | 0.37 | – | – | – | – | –
Cc1ccc2c(O[C@@H]3C[C@H]4C(=O)N[C@]5(C(=O)NS(=O)(=O)C6(C)CC6)C[C@H]5/C=C\CCCCC[C@H](NC(=O)c5ccn(C)n5)C(=O)N4C3)cc(OC(C)C)nc2c1Br [Compound 1024, (2R,6S,12Z,13aS,14aR,16aS)-2-{[8-bromo-7-methyl-2-(propan-2-yloxy)quinolin-4-yl]oxy}-N-[(1-methylcyclopropyl)sulfonyl]-6-{[(1-methyl-1H-pyrazol-3-yl)carbonyl]amino}-5,16-dioxo-1,2,3,6,7,8,9,10,11,13a,14,15,16,16a-tetradecahydrocyclopropa[e]pyrrolo[1,2-a][1,4]diazacyclopentadecine-14a(5H)-carboxamide] | 9.3 | 0.09 | 1.9 | 0.13 | 0.1 | – | – | – | – | –
CC(C)Oc1cc(O[C@@H]2C[C@H]3C(=O)N[C@]4(C(=O)NS(=O)(=O)C5(C)CC5)C[C@H]4/C=C\CCCCC[C@H](NC(=O)c4ccn(C)n4)C(=O)N3C2)c2ccc(Cl)c(Cl)c2n1 [Compound 1025, (2R,6S,12Z,13aS,14aR,16aS)-2-{[7,8-dichloro-2-(propan-2-yloxy)quinolin-4-yl]oxy}-N-[(1-methylcyclopropyl)sulfonyl]-6-{[(1-methyl-1H-pyrazol-3-yl)carbonyl]amino}-5,16-dioxo-1,2,3,6,7,8,9,10,11,13a,14,15,16,16a-tetradecahydrocyclopropa[e]pyrrolo[1,2-a][1,4]diazacyclopentadecine-14a(5H)-carboxamide] | 9.3 | 0.11 | 3.8 | 0.17 | 0.22 | – | – | – | – | –
COc1c(F)ccc2c(O[C@@H]3C[C@H]4C(=O)N[C@]5(C(=O)NS(=O)(=O)C6(C)CC6)C[C@H]5/C=C\CCCCC[C@H](NC(=O)c5ccn(CC(F)(F)F)n5)C(=O)N4C3)cc(OC(C)C)nc12 [Compound 1026, (2R,6S,12Z,13aS,14aR,16aS)-2-{[7-fluoro-8-methoxy-2-(propan-2-yloxy)quinolin-4-yl]oxy}-N-[(1-methylcyclopropyl)sulfonyl]-5,16-dioxo-6-({[1-(2,2,2-trifluoroethyl)-1H-pyrazol-3-yl]carbonyl}amino)-1,2,3,6,7,8,9,10,11,13a,14,15,16,16a-tetradecahydrocyclopropa[e]pyrrolo[1,2-a][1,4]diazacyclopentadecine-14a(5H)-carboxamide] | 1.6 | 0.34 | 0.7 | 0.31 | 0.52 | – | – | – | – | –
COc1c(F)ccc2c(O[C@@H]3C[C@H]4C(=O)N[C@]5(C(=O)NS(=O)(=O)C6(C)CC6)C[C@H]5/C=C\CCCCC[C@H](NC(=O)c5ccn(C(F)F)n5)C(=O)N4C3)cc(OC(C)C)nc12 [Compound 1027, (2R,6S,12Z,13aS,14aR,16aS)-6-({[1-(difluoromethyl)-1H-pyrazol-3-yl]carbonyl}amino)-2-{[7-fluoro-8-methoxy-2-(propan-2-yloxy)quinolin-4-yl]oxy}-N-[(1-methylcyclopropyl)sulfonyl]-5,16-dioxo-1,2,3,6,7,8,9,10,11,13a,14,15,16,16a-tetradecahydrocyclopropa[e]pyrrolo[1,2-a][1,4]diazacyclopentadecine-14a(5H)-carboxamide] | 4.7 | 0.39 | 2.2 | 0.33 | 0.47 | – | – | – | – | –
COc1c(F)ccc2c(O[C@@H]3C[C@H]4C(=O)N[C@]5(C(=O)NS(=O)(=O)C6(C)CC6)C[C@H]5/C=C\CCCCC[C@H](NC(=O)c5ccc(C)s5)C(=O)N4C3)cc(OC(C)C)nc12 [Compound 1028, (2R,6S,12Z,13aS,14aR,16aS)-2-{[7-fluoro-8-methoxy-2-(propan-2-yloxy)quinolin-4-yl]oxy}-N-[(1-methylcyclopropyl)sulfonyl]-6-{[(5-methylthiophen-2-yl)carbonyl]amino}-5,16-dioxo-1,2,3,6,7,8,9,10,11,13a,14,15,16,16a-tetradecahydrocyclopropa[e]pyrrolo[1,2-a][1,4]diazacyclopentadecine-14a(5H)-carboxamide] | 6.5 | 0.52 | 5.5 | 0.69 | 1.1 | – | – | – | – | –
CC(C)(C)OC(=O)N[C@H]1CCCCC/C=C\[C@@H]2C[C@@]2(C(=O)NS(=O)(=O)C2CC2)NC(=O)[C@@H]2C[C@@H](OC(=O)N3Cc4cccc(F)c4C3)CN2C1=O [reference compound] | – | – | – | – | – | 690 | 120 | 180 | 5.4 | 2.1
COc1ccc2c(O[C@@H]3C[C@H]4C(=O)N[C@@]5(C(=O)NS(=O)(=O)C6CC6)C[C@@H]5/C=C\CCCCN(C)C(=O)[C@@H]4C3)cc(-c3nc(C(C)C)cs3)nc2c1C [reference compound] | – | – | – | – | – | 300 | 4400 | 3500 | 1.2 | 0.7
